{"source": "patent US20250312323A1", "about": "(Cavion, Inc., priority 2018, published 2025)", "key": {"[1]": {"tested_on": "patients with essential tremor", "assay": "T-CALM: electrocardiogram, vital signs, clinical laboratory, examinations", "assay_type": "in vivo, human", "description": "Electrocardiogram results were calculated as the average of the triplicate records at each time point. Baseline was defined as the mean of the triplicate values obtained pre-dose at Day 1. If this value was not available, the mean of the triplicate records obtained at screening were used.\nSafety procedures involved collection of all TEAEs (treatment-emergent adverse events) coded into the Medical Dictionary for Regulatory Activities (MedDRA) version 20. Adverse events were classified by maximum severity, drug-related adverse events, serious adverse events, and adverse events leading to patient discontinuation."}, "[2]": {"assay": "Pharmacokinetics of MR2 CX-8998 in fed versus fasted subjects", "assay_type": "in vivo, human", "settings": "MR2 CX-8998, single dose 1×8 mg", "quoted_text": "Subjects will be screened for study eligibility within 28 days before administration of the first dose of study drug. Subjects who meet the study eligibility criteria will be admitted to the clinical research unit in the afternoon of the day before administration of the first dose of study drug (Period 1/Day −1)."}, "[3]": {"tested_on": "patients with essential tremor", "assay": "T-CALM: PK/PD, Cmin exposure vs change in TETRAS-PS (Hill equation)", "assay_type": "in vivo, human", "settings": "steady state, estimated", "excerpt": "Evaluation of the relationship between the Cmin exposure level of CX-8998 and response (E) as measured by change from baseline in TETRAS-PS using the Hill Equation: […]\nPharmacodynamic variables (Response) evaluated included change from baseline in TETRAS performance subscale, TETRAS activities of daily living, TETRAS total score."}, "EEG alpha power": {"tested_on": "EEG alpha power", "assay": "Human pharmaco-EEG alpha power (Study PN001/Part II)", "assay_type": "in vivo", "settings": "at plasma concentrations greater than 200 to 300 nM (4 mg BID)", "excerpt": "FIG. 91 contains a graph showing the analysis of awake EEG absolute power for Alpha band (Electrode site Oz, eyes closed condition) (Study PN001/Part II).\nFIG. 92 contains a graph showing the pharmacokinetic/pharmacodynamic analysis of EEG Alpha power (Study PN001/Part 1). BID=twice daily; EEG=electroencephalogram; MK=CX-8998; PBO=placebo; PD=pharmacodynamic."}, "[4]": {"tested_on": "patients with essential tremor", "assay": "T-CALM: treatment-emergent adverse events, discontinuations, dosage reductions", "assay_type": "in vivo, human", "protocol": "T-CALM employed the following dose titration scheme: Week 1 at 4 mg BID (8 mg/day), Week 2 at 8 mg BID (16 mg/day) and Weeks 3 & 4 at 10 mg BID (20 mg/day). […] Adverse Events were coded using MedDRA V20.0. Only treatment emergent adverse events with an onset date and time after the initiation of study drug until 30 days after discontinuation of drug were reported. For subjects who experience the same coded event more than once, a single event was presented. Adverse events were attributed to a study week based on the onset date, i.e. events that started on or after Visit 1 and prior to Visit 2 were classified as Study Week 1.\nAdverse events are characterized by maximum severity, drug-related adverse events, serious adverse events and adverse events leading to discontinuation of study."}, "[5]": {"settings": "N = 48, inadequate drug supply at Visit 4"}}, "note": "“Also recorded” adds a separate entry of the source."}
{"smiles": "CC(C)c1ccc(CC(=O)N[C@H](C)c2ccc(OCC(F)(F)F)cn2)cc1", "note": "[CX-8998]", "values": [{"measurement": "clinical laboratory parameters vs placebo", "setting": "[1]", "result": "No clinically meaningful differences"}, {"measurement": "vital signs, ECG, neurological and physical examinations", "setting": "[1]", "result": "No clinically significant abnormalities"}, {"measurement": "effect of fed state on overall exposure as measured by AUC", "setting": "[2]", "result": "does not appear to significantly impact overall exposure"}, {"measurement": "effect of fed vs fasted state on early absorption", "setting": "[2]", "result": "impacts early absorption"}, {"measurement": "effect of fed vs fasted state on late absorption", "setting": "[2]", "result": "does not appear to significantly impact late absorption"}, {"measurement": "Emax, change from baseline in TETRAS-PS vs Cmin (Hill equation)", "setting": "[3]", "result": "approximately −4.1"}, {"measurement": "reduction of EEG alpha power", "setting": "EEG alpha power", "result": "≥ 25", "unit": "%"}, {"measurement": "Discontinuation due to Nervous System Disorders, subjects, percent", "setting": "[4]; N = 48", "result": "(8%)"}, {"measurement": "Discontinuation due to Psychiatric Disorders, subjects, number", "setting": "[4]; N = 48", "result": 4}, {"measurement": "Discontinuation due to Psychiatric Disorders, subjects, percent", "setting": "[4]; N = 48", "result": "(8%)"}, {"measurement": "Dosage reduced during study, subjects, percent", "setting": "[4]; N = 48", "result": "(8%)"}, {"measurement": "Dosage reduction due to adverse event, subjects, number", "setting": "[4]; N = 48", "result": 3}, {"measurement": "Dosage reduction due to adverse event, subjects, percent", "setting": "[4]; N = 48", "result": "(6%)"}, {"measurement": "Subjects with at least 1 event leading to discontinuation, number", "setting": "[4]; N = 48", "result": 8}, {"measurement": "Subjects with at least 1 event leading to discontinuation, percent", "setting": "[4]; N = 48", "result": "(17%)"}, {"measurement": "Dosage reduction due to other reasons, subjects, number", "setting": "[4]; [5]", "result": 1}, {"measurement": "Dosage reduction due to other reasons, subjects, percent", "setting": "[4]; [5]", "result": "(2%)^3"}, {"measurement": "TEAE Ear and Labyrinth Disorders (system organ class), subjects, number (%)", "setting": "[4]; Safety Analysis Set, n = 48", "result": "2 (4%)"}, {"measurement": "TEAE Gastrointestinal Disorders (system organ class), subjects, number (%)", "setting": "[4]; Safety Analysis Set, n = 48", "result": "9 (19%)"}, {"measurement": "TEAE Infections and Infestations (system organ class), subjects, number (%)", "setting": "[4]; Safety Analysis Set, n = 48", "result": "4 (8%)"}, {"measurement": "TEAE Nervous System Disorders (system organ class), subjects, number (%)", "setting": "[4]; Safety Analysis Set, n = 48", "result": "20 (42%)"}, {"measurement": "TEAE Psychiatric Disorders (system organ class), subjects, number (%)", "setting": "[4]; Safety Analysis Set, n = 48", "result": "12 (52%)"}, {"measurement": "Dosage reduction due to TEAEs, patients", "setting": "[4]; T-CALM", "result": 6, "unit": "%"}, {"measurement": "Serious adverse events (alcohol withdrawal syndrome, major depression, suicidal ideation), deemed unrelated to study drug", "setting": "[4]; T-CALM", "result": "one patient"}, {"measurement": "patients with at least 1 TEAE", "setting": "[4]; T-CALM", "result": 58, "unit": "%"}, {"measurement": "Discontinuation due to adverse events (TEAEs), patients n (%)", "setting": "[4]; T-CALM, N=48", "result": "8 (17%)"}, {"measurement": "TEAE Abnormal dreams, n (%)", "setting": "[4]; T-CALM, n = 48", "result": "2 (4%)"}, {"measurement": "TEAE Disturbance in attention, n (%)", "setting": "[4]; T-CALM, n = 48", "result": "2 (4%)"}, {"measurement": "TEAE Dizziness, n (%)", "setting": "[4]; T-CALM, n = 48", "result": "10 (21%)"}, {"measurement": "TEAE Dry mouth, n (%)", "setting": "[4]; T-CALM, n = 48", "result": "2 (4%)"}, {"measurement": "TEAE Dysgeusia, n (%)", "setting": "[4]; T-CALM, n = 48", "result": "2 (4%)"}, {"measurement": "TEAE Ear and Labyrinth Disorders, n (%)", "setting": "[4]; T-CALM, n = 48", "result": "2 (4%)"}, {"measurement": "TEAE Euphoric mood, n (%)", "setting": "[4]; T-CALM, n = 48", "result": "3 (6%)"}, {"measurement": "TEAE Gastrointestinal Disorders, n (%)", "setting": "[4]; T-CALM, n = 48", "result": "9 (19%)"}, {"measurement": "TEAE Hallucination, n (%)", "setting": "[4]; T-CALM, n = 48", "result": "2 (4%)"}, {"measurement": "TEAE Headache, n (%)", "setting": "[4]; T-CALM, n = 48", "result": "4 (8%)"}, {"measurement": "TEAE Hypesthesia, n (%)", "setting": "[4]; T-CALM, n = 48", "result": 0}, {"measurement": "TEAE Infections and Infestations, n (%)", "setting": "[4]; T-CALM, n = 48", "result": "4 (8%)"}, {"measurement": "TEAE Insomnia, n (%)", "setting": "[4]; T-CALM, n = 48", "result": "3 (6%)"}, {"measurement": "TEAE Nausea, n (%)", "setting": "[4]; T-CALM, n = 48", "result": "1 (2%)"}, {"measurement": "TEAE Nervous System Disorders, n (%)", "setting": "[4]; T-CALM, n = 48", "result": "20 (42%)"}, {"measurement": "TEAE Paraesthesia, n (%)", "setting": "[4]; T-CALM, n = 48", "result": "2 (4%)"}, {"measurement": "TEAE Somnolence, n (%)", "setting": "[4]; T-CALM, n = 48", "result": "1 (2%)"}, {"measurement": "TEAE Tinnitus, n (%)", "setting": "[4]; T-CALM, n = 48", "result": "2 (4%)"}, {"measurement": "TEAE Urinary Tract Infection, n (%)", "setting": "[4]; T-CALM, n = 48", "result": "2 (4%)"}, {"measurement": "TEAE Vomiting, n (%)", "setting": "[4]; T-CALM, n = 48", "result": 0}, {"measurement": "safety and tolerability in ET patients", "setting": "[4]; T-CALM, up to 10 mg BID", "result": "safe and well tolerated"}, {"measurement": "Adverse Event (MedDRA Preferred Term) leading to dosage reduction", "setting": "[4]; individual subjects 26-001 (10 to 8 mg BID), 31-023 (8 to 4 mg BID), 33-004 (4 to 2 mg BID), one line each, considered related to study drug", "result": "Anxiety; also recorded: Electrocardiogram; also recorded: Headache"}, {"measurement": "AE Any Event, percent of subjects", "setting": "[4]; onset in study week 1", "result": "(40%)"}, {"measurement": "AE Central Nervous System Disorders, number of subjects", "setting": "[4]; onset in study week 1", "result": 16}, {"measurement": "AE Central Nervous System Disorders, percent of subjects", "setting": "[4]; onset in study week 1", "result": "(33%)"}, {"measurement": "AE Ear and Labyrinth Disorders, number of subjects", "setting": "[4]; onset in study week 1", "result": 2}, {"measurement": "AE Ear and Labyrinth Disorders, percent of subjects", "setting": "[4]; onset in study week 1", "result": "(4%)"}, {"measurement": "AE Eye Disorders, number of subjects", "setting": "[4]; onset in study week 1", "result": 1}, {"measurement": "AE Eye Disorders, percent of subjects", "setting": "[4]; onset in study week 1", "result": "(2%)"}, {"measurement": "AE Gastrointestinal Disorders, number of subjects", "setting": "[4]; onset in study week 1", "result": 7}, {"measurement": "AE Gastrointestinal Disorders, percent of subjects", "setting": "[4]; onset in study week 1", "result": "(15%)"}, {"measurement": "AE Infections and Infestations, number of subjects", "setting": "[4]; onset in study week 1", "result": 0}, {"measurement": "AE Injury, Poisoning and Procedural Complications, percent of subjects", "setting": "[4]; onset in study week 1", "result": "(2%)"}, {"measurement": "AE Investigations, number of subjects", "setting": "[4]; onset in study week 1", "result": 1}, {"measurement": "AE Investigations, percent of subjects", "setting": "[4]; onset in study week 1", "result": "(2%)"}, {"measurement": "AE Metabolism and Nutrition Disorders, number of subjects", "setting": "[4]; onset in study week 1", "result": 1}, {"measurement": "AE Metabolism and Nutrition Disorders, percent of subjects", "setting": "[4]; onset in study week 1", "result": "(2%)"}, {"measurement": "AE Musculoskeletal and Connective Tissue Disorders, number of subjects", "setting": "[4]; onset in study week 1", "result": 1}, {"measurement": "AE Musculoskeletal and Connective Tissue Disorders, percent of subjects", "setting": "[4]; onset in study week 1", "result": "(2%)"}, {"measurement": "AE Neoplasms, number of subjects", "setting": "[4]; onset in study week 1", "result": 1}, {"measurement": "AE Neoplasms, percent of subjects", "setting": "[4]; onset in study week 1", "result": "(2%)"}, {"measurement": "AE Psychiatric Disorders, number of subjects", "setting": "[4]; onset in study week 1", "result": 8}, {"measurement": "AE Psychiatric Disorders, percent of subjects", "setting": "[4]; onset in study week 1", "result": "(17%)"}, {"measurement": "AE Respiratory, Thoracic and Mediastinal Disorders, percent of subjects", "setting": "[4]; onset in study week 1", "result": "(2%)"}, {"measurement": "AE Skin and Subcutaneous Tissue Disorders, number of subjects", "setting": "[4]; onset in study week 1", "result": 1}, {"measurement": "AE Skin and Subcutaneous Tissue Disorders, percent of subjects", "setting": "[4]; onset in study week 1", "result": "(2%)"}]}
